Measurements: PMC10714400, “Antimicrobial Peptide–Peptoid Hybrids with and without Membrane Disruption” (ACS Infectious Diseases, 2023)

Experiments:
[1] = system: A. baumannii ATCC19606
Experimental: (§1) Antimicrobial activity was assayed for all the peptide–peptoids against P. aeruginosa PAO1, K. pneumoniae NCTC418, E. coli W3110, A. baumannii ATCC 19606, methicillin-resistant S. aureus COL (MRSA), and for selected peptides on P. aeruginosa PA14 and the polymyxin-B-resistant derivatives PA14 4.13, PA14 4.18, PA14 2P4, as well as the clinical isolates ZEM-1A and ZEM9A, K. pneumoniae OXA-48, S. aureus Newman, Enterobacter cloacae, Stenotrophomonas maltophilia, Burkholderia cenocepacia, and Staphylococus epidermidis. To determine the Minimal Inhibitory Concentration (MIC), the Broth Microdilution method was used.[72] A colony of bacteria was picked and grown in LB medium overnight at 37 °C.
(§2) To each well was finally added 4 μL of the diluted bacterial suspension (see above), corresponding to approximately 5 × 10^5 CFU. For each test, two columns of the plate were kept for sterility control (medium only), growth control (medium with bacterial inoculum, no compound). The positive control, Polymyxin B (starting with a concentration of 16 μg/mL) in MH medium with bacterial inocula, was introduced in the two lines of the plate. The plates were incubated at 37 °C for ca. 18 h under static conditions. Next, 15 μL of 3-(4,5-dimethylthiazol-2-yl)-2,5-diphenyltetrazolium bromide (MTT)[73] (1 mg/mL in sterilized MilliQ deionized water) were added to each well, and the plates were incubated for 20–30 min at room temperature. The minimal inhibitory concentration (MIC) was defined as the lowest concentration of the compound that inhibits the visible growth of the tested bacteria (yellow) with the unaided eye.

[2] = system: E. cloacae; conditions: Table S3; […] MH at pH 8.5
Experimental: as §1, §2

[3] = system: E. coli W3110
Experimental: as §1, §2

[4] = system: K. pneumoniae NCTC418
Experimental: as §1, §2

[5] = system: K. pneumoniae OXA-48; conditions: Table S3; […] MH at pH 8.5
Experimental: as §1, §2

[6] = system: P. aeruginosa PAO1
Experimental: as §1, §2

[7] = system: PA14 2P4 (pmrB); conditions: diluted MH ([…] MH) at pH 8.5 (Table 2 footnote b)
Experimental: as §1, §2

[8] = system: PA14 4.13 (phoQ); conditions: diluted MH ([…] MH) at pH 8.5 (Table 2 footnote b)
Experimental: as §1, §2

[9] = system: PA14 4.18 (pmrB); conditions: diluted MH ([…] MH) at pH 8.5 (Table 2 footnote b)
Experimental: as §1, §2

[10] = system: S. aureus COL (MRSA); conditions: Table S2
Experimental: as §1, §2

[11] = system: ZEM-1A (clinical MDR P. aeruginosa isolate); conditions: Table S3; […] MH at pH 8.5
Experimental: as §1, §2

[12] = system: ZEM9A (clinical MDR P. aeruginosa isolate); conditions: Table S3; […] MH at pH 8.5
Experimental: as §1, §2

[13] = Circular dichroism, α-helical content; type: physicochemical; conditions: 0.1 mg/mL; for CD %α with 5 mM DPC: 10 mM phosphate buffer pH 7.4, 5 mM DPC; for CD %α with 20% TFE: 10 mM phosphate buffer pH 7.4, 20% TFE
[14] = system: B. cenocepacia; conditions: 4 h, pH 8.5
Experimental: as §1
as §2, with “The plates were incubated at 37 °C for ca. 18 h under static conditions.” left out

[15] = system: P. aeruginosa PA14; conditions: Table S3; […] MH at pH 8.5, 16-20 hours at 37 °C
Experimental: as §1
as §2, with “The plates were incubated at 37 °C for ca. 18 h under static conditions.” left out

[16] = system: S. aureus Newman; conditions: Table S3; […] MH at pH 8.5
Experimental: as §1
as §2, with “The plates were incubated at 37 °C for ca. 18 h under static conditions.” left out

[17] = system: S. epidermis; conditions: Table S3; […] MH at pH 8.5
Experimental: as §1
as §2, with “The plates were incubated at 37 °C for ca. 18 h under static conditions.” left out

[18] = system: S. maltophilia; conditions: Table S3; […] MH at pH 8.5
Experimental: as §1
as §2, with “The plates were incubated at 37 °C for ca. 18 h under static conditions.” left out

[19] = system: P. aeruginosa PAO1; test: Bacterial count after treatment, before TEM sample preparation; type: cell-based, Pseudomonas aeruginosa; conditions: P. aeruginosa PAO1, […] MH pH 8.5, 10x MIC
Experimental: (§3) Just before the samples were further prepared for the microscopy, surviving bacteria were quantified by plating 10-fold dilutions of samples in sterilized normal saline (NaCl 0.9%) on LB agar plates. […] The assay was performed in triplicate. Each bacteria sample was centrifuged at 12,000 rpm for 3 min, and the supernatant was discarded. The samples were then further processed and imaged using our previously described protocol.[64]
8. Transmission electron microscopy (TEM)
Table S4: Bacterial counts, 2 hours after treatment, before TEM sample preparation. Data represents triplicates.
Bacteria count after treatment at 10x MIC and 2 h of incubation at 37 °C
Control (non-treated cells) 1 × 10^8 CFU (100)

[20] = system: P. aeruginosa PAO1; test: Transmission electron microscopy (TEM); type: cell-based, Pseudomonas aeruginosa; conditions: P. aeruginosa PAO1, 10 × MIC, […] MH at pH 8.5, 2 h at 37 °C
Experimental: Scale bars are 500 nm and 1 μm. Red arrows: membrane perturbations. Blue arrows: intracellular aggregation. Yellow arrows: empty area within the cell.
as §3

## H-VDKPPYLPRPRPPRRIYNR-NH2 [Onc, reference compound]
[1]; ATCC19606, 4 h, pH 8.5
  MIC A. baumannii ATCC19606 Full MH 8.5: 8 µg/mL
[1]; Table S2, […] MH, pH 7.4
  MIC A. baumannii ATCC19606 […] 7.4: 4 µg/mL
[1]; Table S2, […] MH, pH 8.5
  MIC A. baumannii ATCC19606 […] 8.5: 4 µg/mL
[1]; Table S2, full MH, pH 7.4
  MIC A. baumannii ATCC19606 Full MH 7.4: 32 µg/mL
[1]; […] MH vs full MH, A. baumannii
  Activity increase in dilute medium: 4 fold
[2]
  MIC E. cloacae: 2 µg/mL
[3]; E. coli W3110, […] MH at pH 8.5, up to 300 mM NaCl
  Antibacterial activity as a function of NaCl concentration: strongly reduced
[3]; Table S2, […] MH, pH 7.4
  MIC E. coli W3110 […] 7.4: 1 µg/mL
[3]; Table S2, […] MH, pH 8.5
  MIC E. coli W3110 […] 8.5: 1 µg/mL
[3]; Table S2, full MH, pH 7.4
  MIC E. coli W3110 Full MH 7.4: 4 µg/mL
[3]; Table S2, full MH, pH 8.5
  MIC E. coli W3110 Full MH 8.5: 1 µg/mL
[3]; […] MH vs full MH, E. coli
  Activity increase in dilute medium: 4 fold
[4]; Table S2, […] MH, pH 7.4
  MIC K. pneumoniae NCTC418 […] 7.4: 1 µg/mL
[4]; Table S2, […] MH, pH 8.5
  MIC K. pneumoniae NCTC418 […] 8.5: 1 µg/mL
[4]; Table S2, full MH, pH 7.4
  MIC K. pneumoniae NCTC418 Full MH 7.4: 4 µg/mL
[4]; Table S2, full MH, pH 8.5
  MIC K. pneumoniae NCTC418 Full MH 8.5: 4 µg/mL
[4]; […] MH vs full MH, K. pneumoniae
  Activity increase in dilute medium: 4 fold
[5]
  MIC K. pneumoniae OXA-48: 1 µg/mL
[6]; P. aeruginosa PAO1, […] MH at pH 8.5, up to 300 mM NaCl
  Antibacterial activity as a function of NaCl concentration: strongly reduced
[6]; Table S2, […] MH, pH 7.4
  MIC P. aeruginosa PAO1 […] 7.4: 32 µg/mL
[6]; Table S2, full MH, pH 7.4
  MIC P. aeruginosa PAO1 Full MH 7.4: > 32 µg/mL
[6]; Table S2, full MH, pH 8.5
  MIC P. aeruginosa PAO1 Full MH 8.5: > 32 µg/mL
[7]
  MIC PA14 2P4 (pmrB): 2 µg/mL
[8]
  MIC PA14 4.13 (phoQ): 2 µg/mL
[9]
  MIC PA14 4.18 (pmrB): 2 µg/mL
[10]; […] MH, pH 7.4
  MIC S. aureus COL (MRSA) […] 7.4: 32 µg/mL
[10]; full MH, pH 7.4
  MIC S. aureus COL (MRSA) Full MH 7.4: > 32 µg/mL
[10]; full MH, pH 8.5
  MIC S. aureus COL (MRSA) Full MH 8.5: > 32 µg/mL
[11]
  MIC P. aeruginosa ZEM-1A: 2 µg/mL
[12]
  MIC P. aeruginosa ZEM9A: 16 µg/mL
[13]; DichroWeb, Contin-LL
  CD %α with 5 mM DPC: 20%
  CD %α with 20% TFE: 23%
[13]; Table S2
  CD %α with 5 mM DPC: 20%
  CD %α with 20% TFE: 23%
[14]
  MIC B. cenocepacia: 32 µg/mL
[15]
  MIC P. aeruginosa PA14: 2 µg/mL
[16]
  MIC S. aureus Newman: 1 µg/mL
[17]
  MIC S. epidermis: 4 µg/mL
[18]
  MIC S. maltophilia: > 32 µg/mL
[19]
  Bacteria count after treatment at 10x MIC and 2 h of incubation at 37 °C (% of control): 0.01 % of control
[20]
  TEM micrographs, changes in treated bacteria: aggregation of intracellular components
